# Laboratory results: the supplement of paper PMC10307832
# What was measured:
# Experiment in all cases: relative viability (nuclei count vs DMSO), 5 days (fraction); higher = more cells survive
# GW-2580 + Palbociclib = compound: COC1=CC=C(C=C1)COC2=C(C=C(C=C2)CC3=CN=C(N=C3N)N)OC [GW-2580] + CC(=O)c1c(C)c2cnc(Nc3ccc(N4CCNCC4)cn3)nc2n(C2CCCC2)c1=O [Palbociclib] (partner 0.5 µM)
# Procedure, shortened: (§1)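 Nuclei were stained with Hoechst during a one-step fixation (final 0.05% Triton X-100, 1% formaldehyde, 1 ug/ml Hoechst) carried out 5 days after dosing, then counted on 4× images. The cells, lung cancer lines in 1536-well plates, had been dosed by pin tool the day after seeding with one drug alone or a fixed anchor-drug dose plus five library-drug doses (not always all listed) in √10 steps. Relative viability is the nuclei count in treated wells divided by that in vehicle wells, and each value is the median of duplicate plates.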
# GW-2580 + Bortezomib = compound: COC1=CC=C(C=C1)COC2=C(C=C(C=C2)CC3=CN=C(N=C3N)N)OC [GW-2580] + CC(C)C[C@H](NC(=O)[C@H](Cc1ccccc1)NC(=O)c1cnccn1)B(O)O [Bortezomib] (partner 0.002 µM)
# Procedure, shortened: as §1
# GW-2580 + Linsitinib = compound: COC1=CC=C(C=C1)COC2=C(C=C(C=C2)CC3=CN=C(N=C3N)N)OC [GW-2580] + C[C@]1(O)C[C@@H](c2nc(-c3ccc4ccc(-c5ccccc5)nc4c3)c3c(N)nccn32)C1 [Linsitinib] (partner 1 µM)
# Procedure, shortened: as §1
# Fedratinib + Palbociclib = compound: Cc1cnc(Nc2ccc(OCCN3CCCC3)cc2)nc1Nc1cccc(S(=O)(=O)NC(C)(C)C)c1 [Fedratinib] + CC(=O)c1c(C)c2cnc(Nc3ccc(N4CCNCC4)cn3)nc2n(C2CCCC2)c1=O [Palbociclib] (partner 0.5 µM)
# Procedure, shortened: as §1
# Fedratinib + Dasatinib = compound: Cc1cnc(Nc2ccc(OCCN3CCCC3)cc2)nc1Nc1cccc(S(=O)(=O)NC(C)(C)C)c1 [Fedratinib] + Cc1nc(Nc2ncc(C(=O)Nc3c(C)cccc3Cl)s2)cc(N2CCN(CCO)CC2)n1 [Dasatinib] (partner 0.075 µM)
# Procedure, shortened: as §1
Cell Line,relative viability (GW-2580 + Palbociclib; first compound 0.08 µM),relative viability (GW-2580 + Palbociclib; first compound 0.8 µM),relative viability (GW-2580 + Palbociclib; first compound 2.53 µM),relative viability (GW-2580 + Palbociclib; first compound 8 µM),relative viability (GW-2580 + Bortezomib; first compound 0.08 µM),relative viability (GW-2580 + Bortezomib; first compound 0.8 µM),relative viability (GW-2580 + Bortezomib; first compound 2.53 µM),relative viability (GW-2580 + Bortezomib; first compound 8 µM),relative viability (GW-2580 + Linsitinib; first compound 0.08 µM),relative viability (GW-2580 + Linsitinib; first compound 0.8 µM),relative viability (GW-2580 + Linsitinib; first compound 2.53 µM),relative viability (GW-2580 + Linsitinib; first compound 8 µM),relative viability (Fedratinib + Palbociclib; first compound 0.1 µM),relative viability (Fedratinib + Palbociclib; first compound 0.3162 µM),relative viability (Fedratinib + Palbociclib; first compound 1 µM),relative viability (Fedratinib + Dasatinib; first compound 0.1 µM),relative viability (Fedratinib + Dasatinib; first compound 0.3162 µM),relative viability (Fedratinib + Dasatinib; first compound 1 µM)
EKVX,0.341,0.392,0.675,0.327,1.09,1.12,0.874,1.01,0.983,1.18,0.884,1.04,0.391,0.403,0.414,0.498,0.681,0.532
EMC-BAC-2,0.536,0.545,–,0.493,1.11,1.16,1.02,1.05,0.839,0.876,0.727,0.875,0.533,0.503,0.489,0.289,0.362,0.285
EPLC-272H,0.317,0.337,–,0.313,1.33,1.07,0.963,1.01,1.05,1.38,1.24,1.14,0.318,0.339,0.365,0.364,0.345,0.0536
H3255,0.308,0.3,0.317,0.279,0.542,0.998,0.579,0.749,0.98,1.03,1.08,0.796,0.277,0.303,0.318,0.397,0.345,0.293
